The source made the active and inactive calls. The calls are words filed in the database; no cut-off is given here.
Tests used:
RAW264.7 [1] = experiment: Anti-inflammatory activity in mouse RAW264.7 cells assessed as inhibition of LPS-induced nitric oxide production at 10 uM pre-incubated for 2 hrs before LPS stimulation for 18 hrs by Griess reagent based colorimetric method; format: functional
Mus musculus [2] = experiment: Anti-inflammatory activity in ICR mouse model of adjuvant-induced arthritis assessed as reduction in arthritis severity scores at 25 and 50 mg/kg, po dosed once daily from day 17 after vaccination; format: functional, organism-based; set-up: dose 50 mg/kg
Mus musculus [3] = experiment: Anti-inflammatory activity in ICR mouse model of carrageenan-induced edema assessed as inhibition of paw thickness at 25 mg/kg, ip; format: functional, organism-based; set-up: dose 25 mg/kg
RAW264.7 [4] = experiment: Cytotoxicity against mouse RAW264.7 cells assessed as reduction in cell viability after 24 hrs in absence of LPS by MTT assay; format: cell-based; conditions: RAW264.7, 24 h
Mus musculus [5] = experiment: Anti-inflammatory activity in ICR mouse model of adjuvant-induced arthritis assessed as reduction in histopathological changes at 50 mg/kg, po dosed once daily from day 17 after vaccination by H and E staining method; format: functional, organism-based; set-up: dose 50 mg/kg
RAW264.7 [6] = experiment: Cytotoxicity against mouse RAW264.7 cells assessed as reduction in cell viability after 24 hrs in presence of LPS by MTT assay; format: cell-based; conditions: RAW264.7, 24 h
Mus musculus [7] = experiment: Anti-inflammatory activity in ICR mouse model of carrageenan-induced edema assessed as inhibition of paw thickness at 50 mg/kg, ip; format: functional; conditions: route intraperitoneal
[8] = molecular target: T1, Nitric oxide synthase, inducible (Mus musculus, UniProt P29477); experiment: Inhibition of iNOS in LPS-stimulated mouse RAW264.7 cells using L-Arginine substrate incubated for 2 hrs by fluorescence spectrometry; format: cell-based
T1 sequence (P29477 whole entry): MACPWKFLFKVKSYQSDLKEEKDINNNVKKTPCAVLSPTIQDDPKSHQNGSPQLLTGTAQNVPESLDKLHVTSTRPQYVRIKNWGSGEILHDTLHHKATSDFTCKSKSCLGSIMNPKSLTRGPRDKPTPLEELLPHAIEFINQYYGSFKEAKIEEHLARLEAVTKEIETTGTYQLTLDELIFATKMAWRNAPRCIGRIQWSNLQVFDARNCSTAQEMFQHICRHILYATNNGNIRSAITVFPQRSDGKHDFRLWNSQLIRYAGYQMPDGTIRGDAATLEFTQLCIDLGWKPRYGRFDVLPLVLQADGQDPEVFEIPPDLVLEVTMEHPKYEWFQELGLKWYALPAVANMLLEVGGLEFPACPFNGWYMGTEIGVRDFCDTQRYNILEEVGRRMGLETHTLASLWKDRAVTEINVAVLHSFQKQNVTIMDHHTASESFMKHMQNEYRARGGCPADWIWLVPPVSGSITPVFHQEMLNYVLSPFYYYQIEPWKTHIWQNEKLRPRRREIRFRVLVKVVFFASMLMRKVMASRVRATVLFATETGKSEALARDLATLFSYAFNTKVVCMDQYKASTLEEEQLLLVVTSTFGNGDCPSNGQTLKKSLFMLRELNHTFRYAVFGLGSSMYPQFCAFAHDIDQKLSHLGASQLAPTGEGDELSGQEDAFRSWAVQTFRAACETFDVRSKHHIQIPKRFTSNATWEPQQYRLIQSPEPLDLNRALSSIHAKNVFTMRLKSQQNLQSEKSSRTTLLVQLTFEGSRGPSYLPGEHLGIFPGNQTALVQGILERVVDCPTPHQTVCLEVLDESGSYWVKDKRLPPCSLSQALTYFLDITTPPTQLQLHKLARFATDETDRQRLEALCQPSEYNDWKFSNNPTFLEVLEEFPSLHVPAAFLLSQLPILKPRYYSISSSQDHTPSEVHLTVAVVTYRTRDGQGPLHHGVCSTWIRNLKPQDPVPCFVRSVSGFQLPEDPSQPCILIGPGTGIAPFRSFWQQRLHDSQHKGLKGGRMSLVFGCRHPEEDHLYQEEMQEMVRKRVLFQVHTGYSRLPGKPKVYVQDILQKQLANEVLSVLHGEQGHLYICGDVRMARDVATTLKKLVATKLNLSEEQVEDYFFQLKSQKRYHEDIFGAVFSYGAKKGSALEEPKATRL

Mus musculus [9] = experiment: Anti-inflammatory activity in ICR mouse model of carrageenan-induced edema assessed as inhibition of paw thickness at 10 mg/kg, ip; format: functional; conditions: route intraperitoneal

Compound | inhibition at 10 µM (RAW264.7 [1]) | further results
COc1ccc(C(=O)N2N=C(c3ccc(OC)c4c3OC(C)(C)C=C4)CC2c2cc(OC)c(OC)c(OC)c2)cc1 (configuration not stated) | 78% | inhibition (Mus musculus [2]): Dose-dependent effect; inhibition (Mus musculus [3]): Active; IC50 (RAW264.7 [4]): > 100 µM; inhibition (Mus musculus [5]): Active; IC50 (RAW264.7 [6]): > 100 µM; inhibition in vivo at 50 mg/kg (Mus musculus [7]): 54.2%; IC50 [8]: 24.8 µM
COc1ccc2c(c1)c(CC(=O)O)c(C)n2C(=O)c1ccc(Cl)cc1 [INDOMETHACIN] | 60.6% | IC50 (RAW264.7 [4]): 10.7 µM; IC50 (RAW264.7 [6]): 9.2 µM; inhibition in vivo at 10 mg/kg (Mus musculus [9]): 32%; IC50 [8]: 4.5 µM
COc1ccc(C2=NN(C(=O)c3cccc(Cl)c3)C(c3cc(OC)c(OC)c(OC)c3)C2)c2c1C=CC(C)(C)O2 (configuration not stated) | 29.1% | –
COc1ccc(C2=NN(C(=O)c3ccc(Cl)cc3)C(c3cc(OC)c(OC)c(OC)c3)C2)c2c1C=CC(C)(C)O2 (configuration not stated) | 34.7% | –
CCC(=O)N1N=C(c2ccc(OC)c3c2OC(C)(C)C=C3)CC1c1cc(OC)c(OC)c(OC)c1 (configuration not stated) | 65.9% | –
COc1ccc(C2=NN(c3ccc(S(N)(=O)=O)cc3)C(c3cc(OC)c(OC)c(OC)c3)C2)c2c1C=CC(C)(C)O2 (configuration not stated) | 30.5% | –
COc1ccc(C2=NN(C(=O)CCl)C(c3cc(OC)c(OC)c(OC)c3)C2)c2c1C=CC(C)(C)O2 (configuration not stated) | 96.7% | IC50 (RAW264.7 [4]): 30.8 µM; IC50 (RAW264.7 [6]): 19.3 µM; IC50 [8]: 2.5 µM
COc1ccc(C2=NN(C(=O)c3cccc(F)c3)C(c3cc(OC)c(OC)c(OC)c3)C2)c2c1C=CC(C)(C)O2 (configuration not stated) | 35.1% | –
COc1ccc(C2=NN(c3ccc(C(=O)O)cc3)C(c3cc(OC)c(OC)c(OC)c3)C2)c2c1C=CC(C)(C)O2 (configuration not stated) | 19.4% | –
COc1ccc(C2=NN(S(=O)(=O)C3CC3)C(c3cc(OC)c(OC)c(OC)c3)C2)c2c1C=CC(C)(C)O2 (configuration not stated) | 31.9% | –
COc1ccc(C2=NN(c3ccc(F)cc3)C(c3cc(OC)c(OC)c(OC)c3)C2)c2c1C=CC(C)(C)O2 (configuration not stated) | 30.8% | –
COc1ccc(C2=NN(S(=O)(=O)c3ccc([N+](=O)[O-])cc3)C(c3cc(OC)c(OC)c(OC)c3)C2)c2c1C=CC(C)(C)O2 (configuration not stated) | 41% | –
CCS(=O)(=O)N1N=C(c2ccc(OC)c3c2OC(C)(C)C=C3)CC1c1cc(OC)c(OC)c(OC)c1 (configuration not stated) | 42.5% | –
COc1ccc(C2=NN(C(=O)c3cc(OC)c(OC)c(OC)c3)C(c3cc(OC)c(OC)c(OC)c3)C2)c2c1C=CC(C)(C)O2 (configuration not stated) | 57.2% | –
COc1ccc(C2=NN(c3ccc(C#N)cc3)C(c3cc(OC)c(OC)c(OC)c3)C2)c2c1C=CC(C)(C)O2 (configuration not stated) | 40.8% | –
COc1ccc(C2=NNC(c3cc(OC)c(OC)c(OC)c3)C2)c2c1C=CC(C)(C)O2 (configuration not stated) | 49.2% | –
CCCS(=O)(=O)N1N=C(c2ccc(OC)c3c2OC(C)(C)C=C3)CC1c1cc(OC)c(OC)c(OC)c1 (configuration not stated) | 40.8% | –
COc1ccc(C2=NN(C(=O)C(C)C)C(c3cc(OC)c(OC)c(OC)c3)C2)c2c1C=CC(C)(C)O2 (configuration not stated) | 54.2% | –
COc1ccc(C2=NN(C(=O)c3ccc(C(F)(F)F)cc3)C(c3cc(OC)c(OC)c(OC)c3)C2)c2c1C=CC(C)(C)O2 (configuration not stated) | 23.1% | –
COc1ccc(C2=NN(S(=O)(=O)c3cc(C)cc(C)c3)C(c3cc(OC)c(OC)c(OC)c3)C2)c2c1C=CC(C)(C)O2 (configuration not stated) | 26.9% | –
COc1ccc(C2=NN(C(=O)CCCl)C(c3cc(OC)c(OC)c(OC)c3)C2)c2c1C=CC(C)(C)O2 (configuration not stated) | 62.1% | –
COc1ccc(C2=NN(C(C)=O)C(c3cc(OC)c(OC)c(OC)c3)C2)c2c1C=CC(C)(C)O2 (configuration not stated) | 89.8% | IC50 (RAW264.7 [4]): > 100 µM; IC50 (RAW264.7 [6]): > 100 µM; IC50 [8]: 7.3 µM
COc1ccc(C2=NN(S(=O)(=O)c3ccc(F)cc3)C(c3cc(OC)c(OC)c(OC)c3)C2)c2c1C=CC(C)(C)O2 (configuration not stated) | 23.2% | –
COc1ccc(C2=NN(S(=O)(=O)c3ccc(C)cc3)C(c3cc(OC)c(OC)c(OC)c3)C2)c2c1C=CC(C)(C)O2 (configuration not stated) | 35.9% | –
COc1ccc(C2=NN(C(=O)c3ccccc3C(F)(F)F)C(c3cc(OC)c(OC)c(OC)c3)C2)c2c1C=CC(C)(C)O2 (configuration not stated) | 18.9% | –
COc1ccc(C2=NN(c3ccc(C(F)(F)F)cc3)C(c3cc(OC)c(OC)c(OC)c3)C2)c2c1C=CC(C)(C)O2 (configuration not stated) | 14.4% | –
COc1ccc(C2=NN(C(=O)c3ccc(F)cc3)C(c3cc(OC)c(OC)c(OC)c3)C2)c2c1C=CC(C)(C)O2 (configuration not stated) | 17.5% | –
COc1ccc(C2=NN(C(=O)c3ccccc3F)C(c3cc(OC)c(OC)c(OC)c3)C2)c2c1C=CC(C)(C)O2 (configuration not stated) | 27.8% | –
COc1ccc(C2=NN(C(=O)c3cccc(C(F)(F)F)c3)C(c3cc(OC)c(OC)c(OC)c3)C2)c2c1C=CC(C)(C)O2 (configuration not stated) | 22.4% | –
COc1ccc(C2=NN(c3ccc([N+](=O)[O-])cc3)C(c3cc(OC)c(OC)c(OC)c3)C2)c2c1C=CC(C)(C)O2 (configuration not stated) | 15.7% | –
